From paper PMC3640414 (Journal of Medicinal Chemistry, 2013)

Legend:
BRD4(1) = target: T1, BRD4(1) (Homo sapiens, UniProt O60885); experiment: AlphaScreen peptide displacement assay (ALPHA), BRD4(1); assay type: binding
T1 construct: amplify the N-terminal bromodomain region of the protein; made in house

[1] = Stability of 8 in buffer (chiral HPLC); assay type: physicochemical; conditions: 2 h in 50 mM HEPES, 0.01% TWEEN, 0.1% BSA
Protocol: vacuum manifold with the inert gas passing through a bed of activated 4 Å molecular sieves and self-indicating silica gel. Cs2CO3, K2CO3 and activated MnO2 were dried in an oven prior to use.
PhMgBr (in THF) was titrated against salicaldehyde phenylhydrazone prior to use, according to the procedure of Love and Jones.9
Reactions with microwave irradiation were carried out in a Biotage Initiator microwave […]
In vacuo refers to the use of a rotary evaporator attached to a diaphragm pump. Brine refers to a saturated aqueous solution of sodium chloride. Petroleum ether refers to the fraction boiling between 30–40 °C unless otherwise stated.
Stability of 8 in buffer: 0.5 mg of (+)-8 in 10 μL DMSO was suspended in buffer (50 mM HEPES, 0.01% TWEEN, 0.1% BSA). […]
Cytotoxcity of 8 in HeLa and U2OS cells: HeLa cells were grown and maintained in DMEM supplemented with L-glutamine and 10% fetal calf serum; U2OS cells were grown and maintained in McCoy’s medium supplemented with 10% fetal calf serum. […] After 24 h or 72 h, 10 μL of WST-1 (Roche Diagnostics) was added to the culture medium and cell viability was determined by colorimetric WST-1 conversion assay. Formazan dye formation was measured at 450 nm using a Molecular devices Spectramax Plus384 microplate reader. Relative WST-1 conversion in treated cells compared with untreated control cells was calculated after […]

[2] = system: A549 (lung adenocarcinoma) cells; experiment: MTS cytotoxicity assay, A549 cells; assay type: cell-based; conditions: 100 μM, 72 h
Description: (§1) We also investigated the effects of 8 and 9 in two lung adenocarcinoma cell lines, A549 and H1975. […] H1975 appeared to be somewhat more sensitive to these compounds, a finding confirmed by a clonogenic survival assay (Supporting Information Figure S5).
(§2) Viability of MV4;11, H549, and H1975 cells was monitored by MTS-based CellTiter 96 AQueous nonradioactive cell proliferation assay (Promega, Madison, WI). Viability of U2OS and HeLa cells was monitored by WST-based cell proliferation kit (Roche, Mannheim, Germany). Further details are provided in Supporting Information

[3] = system: H1975 (lung adenocarcinoma) cells; experiment: MTS cytotoxicity assay, H1975 cells; assay type: cell-based; conditions: 100 μM, 72 h
Description: as §1, §2

[4] = target: bromodomain of cAMP response element binding protein (CREB) binding protein (UniProt Q92793 1081-1197); experiment: AlphaScreen or HTRF; peptide displacement ALPHA assay; CREBBP bromodomain and biotinylated H3K56Ac peptide, protein and peptide concentration 200 nM (Table 1) or 50 nM (Table 2); small-molecule competitors; duplicate on the same plate; conditions: both partners purified
bromodomain of cAMP response element binding protein (CREB) binding protein, sequence (Q92793 1081-1197): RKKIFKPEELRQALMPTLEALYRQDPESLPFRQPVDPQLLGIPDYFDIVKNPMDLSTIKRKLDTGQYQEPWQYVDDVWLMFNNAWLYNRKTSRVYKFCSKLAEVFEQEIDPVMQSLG

Molecule: CCOc1cc(-c2c(C)noc2C)cc(C(O)c2ccccc2)c1 (stereo not shown) [Compound 12, (3-(3,5-Dimethylisoxazol-4-yl)-5-ethoxyphenyl)(phenyl)methanol]
- selectivity for BRD4(1) over CREBBP bromodomain (BRD4(1); comparison of ALPHA IC50 values): approximately 6 fold
- ligand efficiency (BRD4(1); for BRD4(1)): 0.36

Molecule: Cc1noc(C)c1-c1cc(O)cc([C@@H](O)c2ccccc2)c1 [(S)-(+)-8, 3-(3,5-Dimethylisoxazol-4-yl)-5-(hydroxy(phenyl)methyl)phenol]
- enantiomeric excess after incubation in buffer [1]: > 98 % ee
- purity after incubation in buffer [1]: 95%

Molecule: CC(=O)Oc1cc(-c2c(C)noc2C)cc(C(O)c2ccccc2)c1 (stereo not shown) [Compound 9, 3-(3,5-Dimethylisoxazol-4-yl)-5-(hydroxy(phenyl)methyl)phenyl Acetate]
- effect on viability of A549 cells [2]: markedly reduced the viability
- effect on viability of H1975 cells [3]: markedly reduced the viability

B1: H3K56Ac peptide (peptide)
peptide: ALREIRRYQKSTELLIRKLK
modifications: K(Ac) (acetyl-lysine) at the 10th residue (K56 of histone H3 by the peptide's name); K(biotin) at the C-terminal lysine
- binding result [4]: binds
